In patent publication US12319675B2 (Artax Biopharma Inc., priority 2018, dated 2025):

Assays:
[1] = Microsomal stability assay, mouse; type: in vitro ADME; conditions: mouse microsomes, read-out: Microsomal Stability (T1/2 min) Mouse
Protocol: (§1) Microsomal stability assays were performed using mouse, rat, and human […] according to methods well-known in the art. Microsomal stability results are shown in Table 2 for selected compounds of the invention. The compound numbers correspond to the compound numbers in Table 1. […] “N/A” indicates not assayed.

[2] = Microsomal stability assay, rat; type: in vitro ADME; conditions: rat microsomes, read-out: Microsomal Stability (T1/2 min) Rat
Protocol: as §1

[3] = Microsomal stability assay, human; type: in vitro ADME; conditions: human microsomes, read-out: Microsomal Stability (T1/2 min) Human
Protocol: as §1

[4] = system: CD3 mediated phosphorylation of ZAP70 in Jurkat cells; assay: CD3 mediated phosphorylation of ZAP70 in Jurkat cells (HTRF); type: cell-based; conditions: Homo sapiens, Jurkat cells stimulated with 20 μg/mL anti-CD3 antibody; for Emax: maximum inhibition, read-out: pZAP70 Inhibition - Maximum Percent Inhibition (% Inhibition); for IC50: read-out: pZAP70 Inhibition IC50
Protocol: Inhibition of CD3 mediated phosphorylation of ZAP70 in Jurkat cells was measured by a cellular based Homogeneous Time-Resolved Fluorescence (HTRF) assay utilizing a Total ZAP-70 HTRF kit.
Briefly, Jurkat cells (˜1.3×10^6 cells/mL) were harvested on the day of experimentation. Cells were washed with PBS and resuspended in Assay Buffer (RPMI 1640 media plus 10% FBS) and counted.
Jurkat cells were seeded in Assay media at a total volume of 4 μL/well (40K cells/well) in a 384-low volume white flat bottom plate. The cells were then incubated at 37° C./5% CO2 for 30 minutes. The cells were then treated in duplicate with test compounds (3×) and reference compounds (3×) in a total volume of 4 μL, respectively. A compound dilution scheme is exemplified in FIG. 1.
The plate was then transferred to an incubator maintained at 37° C./5% CO2 for 2 minutes. Following incubation, cells were stimulated with 20 μg/mL of anti-CD3 antibody (1 mg/mL stock) and assay media was used to bring the total well volume 4 μL/well. The plate was then transferred to the incubator maintained at 37° C./5% CO2 for 2.5 minutes. Following incubation, 4 μL of lysis buffer (4×) provided in the kit was added to each well. The plate was then incubated at RT for 1 hour with gentle shaking. Following incubation, 4 μL of detection mix was added to each well and the plate was sealed with a plate sealer and left overnight at RT in the dark.
The Envision reader was set-up for Eu^3+ cryptate and fluorescence emission was read at two different wavelengths (620 nm and 665 nm). • Excitation filter: UV2(TRF) 320 nm • Emission filter: 665 nm • 2nd Emission filter: Europium 615 nm • Measurement height (mm): 6.5 • Excitation light (%): 100 • Delay (μs): 50 • Window time (μs): 400 • Time between flashes (μs): 2000 • Number of flashes: 100 • Number of flashes for 2nd detector: 100
The data is represented by the signal form the two wavelengths:
The ratio of the signal is calculated for each individual well:
The data was plotted using Graph Pad Prism. The significance between untreated vs. treated groups was assessed by One-way ANOVA and Bonferroni posttest comparing all columns in the graph.
ZAP70 IC50 results are shown in Table 6 for select compounds of the invention. The compound numbers correspond to the compound numbers in Table 1. […] “ND” indicates not determined.
ZAP70 percent maximum inhibition results are shown in Table 7 for select compounds of the invention. The compound numbers correspond to the compound numbers in Table 1.

SMILES: CC(C)(O)CCOc1ccc2c(c1)C(c1ccc(F)cc1)=C(CN1CCCC1)CO2 [Compound I-35, 4-((4-(4-fluorophenyl)-3-(pyrrolidin-1-ylmethyl)-2H-chromen-6-yl)oxy)-2-methylbutan-2-ol]
- half-life [1]: 10 to 30 min
- half-life [2]: < 10 min
- half-life [3]: > 30 min
- Emax [4]: ≤ 30%
- IC50 [4]: 1 to 10 nM

SMILES: Fc1ccc(C2=C(CN3CCCC3)COc3ccc(OCCN4CCCCC4)cc32)cc1 [Compound I-39, 1-(2-((4-(4-fluorophenyl)-3-(pyrrolidin-1-ylmethyl)-2H-chromen-6-yl)oxy)ethyl)piperidine]
- half-life [1]: > 30 min
- half-life [2]: > 30 min
- half-life [3]: > 30 min
- Emax [4]: ≤ 30%
- IC50 [4]: 1 to 10 nM

SMILES: Fc1ccc(C2=C(CN3CCCC3)COc3ccc(OCCc4nnn[nH]4)cc32)cc1 [Compound I-34, 5-(2-((4-(4-fluorophenyl)-3-(pyrrolidin-1-ylmethyl)-2H-chromen-6-yl)oxy)ethyl)-1H-tetrazole]
- half-life [1]: > 30 min
- half-life [2]: > 30 min
- half-life [3]: > 30 min
- Emax [4]: 30 to 40%
- IC50 [4]: < 1 nM

SMILES: CN1CCN(C(=O)C2=C(c3ccc(F)cc3)c3cc(F)ccc3OC2)CC1 [Compound I-58, (6-fluoro-4-(4-fluorophenyl)-2H-chromen-3-yl)(4-methylpiperazin-1-yl)methanone]
- half-life [1]: < 10 min
- half-life [2]: < 10 min
- half-life [3]: > 30 min
- Emax [4]: 30 to 40%
- IC50 [4]: > 50 nM

SMILES: N/C(CCOc1ccc2c(c1)C(c1ccc(F)cc1)=C(CN1CCCC1)CO2)=N\O [Compound I-36, 3-((4-(4-fluorophenyl)-3-(pyrrolidin-1-ylmethyl)-2H-chromen-6-yl)oxy)-N-hydroxypropanimidamide]
- half-life [1]: 10 to 30 min
- half-life [2]: 10 to 30 min
- half-life [3]: > 30 min
- Emax [4]: 40 to 50%
- IC50 [4]: < 1 nM

SMILES: CN1CCN(C(=O)C2=C(c3ccc(F)cc3)c3cc(OC4CC4)ccc3OC2)CC1 [Compound I-27]
- half-life [1]: < 10 min
- half-life [2]: < 10 min
- half-life [3]: < 10 min
- Emax [4]: ≤ 30%
- IC50 [4]: > 50 nM

SMILES: CN1CCN(CC2=C(c3ccc(C(F)(F)F)cc3)c3cc(OCCC(=O)O)ccc3OC2)CC1 [Compound I-69]
- Emax [4]: > 50%
- IC50 [4]: 1 to 10 nM

SMILES: CC(C)(COc1ccc2c(c1)C(c1ccc(C(F)(F)F)cc1)=C(CN1CCOCC1)CO2)C(=O)O [Compound I-79]
- Emax [4]: > 50%
- IC50 [4]: 1 to 10 nM

SMILES: O=c1[nH]c(CCOc2ccc3c(c2)C(c2ccc(F)cc2)=C(CN2CCCC2)CO3)no1 [Compound I-37, 3-(2-((4-(4-fluorophenyl)-3-(pyrrolidin-1-ylmethyl)-2H-chromen-6-yl)oxy)ethyl)-1,2,4-oxadiazol-5(2H)-one]
- half-life [1]: > 30 min
- half-life [2]: 10 to 30 min
- half-life [3]: > 30 min
- Emax [4]: 30 to 40%
- IC50 [4]: 1 to 10 nM

SMILES: O=C(C1=C(c2ccc(F)cc2)c2cc(F)ccc2OC1)N1CCCC1 [Compound I-62]
- Emax [4]: 30 to 40%
- IC50 [4]: 1 to 10 nM

SMILES: CN1CCN(CC2=C(c3ccc(F)cc3)c3cc(OC(F)(F)F)ccc3OC2)CC1 [Compound I-11, 1-((4-(4-fluorophenyl)-6-(trifluoromethoxy)-2H-chromen-3-yl)methyl)-4-methylpiperazine]
- half-life [1]: > 30 min
- half-life [2]: > 30 min
- half-life [3]: > 30 min
- Emax [4]: ≤ 30%
- IC50 [4]: 1 to 10 nM

SMILES: O=C(C1=C(c2ccc(F)cc2)c2cc(OC(F)(F)F)ccc2OC1)N1CCCC1 [Compound I-7]
- half-life [1]: < 10 min
- half-life [2]: < 10 min
- half-life [3]: 10 to 30 min

SMILES: CN(C)CCNCC1=C(c2ccc(F)cc2)c2cc(F)ccc2OC1 [Compound I-61, N′-((6-fluoro-4-(4-fluorophenyl)-2H-chromen-3-yl)methyl)-N^2,N^2-dimethylethane-1,2-diamine]
- half-life [1]: < 10 min
- half-life [2]: < 10 min
- half-life [3]: 10 to 30 min
- Emax [4]: 40 to 50%
- IC50 [4]: 1 to 10 nM

SMILES: CC(C)(COc1ccc2c(c1)C(c1ccc(C(F)(F)F)cc1)=C(CN1CCCC1)CO2)C(=O)O [Compound I-81]
- Emax [4]: > 50%
- IC50 [4]: 1 to 10 nM

SMILES: CC(C)(COc1ccc2c(c1)C(c1ccc(F)cc1)=C(CN1CCOCC1)CO2)C(=O)O [Compound I-80]
- Emax [4]: > 50%
- IC50 [4]: 1 to 10 nM

SMILES: Fc1ccc(C2=C(CN3CCCC3)COc3ccc(F)cc32)cc1 [Compound I-63, 1-((6-fluoro-4-(4-fluorophenyl)-2H-chromen-3-yl)methyl)pyrrolidine]
- half-life [1]: 10 to 30 min
- half-life [2]: < 10 min
- half-life [3]: > 30 min
- Emax [4]: 30 to 40%
- IC50 [4]: 1 to 10 nM

SMILES: CN1CCN(CCOc2ccc3c(c2)C(c2ccc(F)cc2)=C(C(=O)N2CCCC2)CO3)CC1 [Compound I-43]
- half-life [1]: < 10 min
- half-life [2]: > 30 min
- half-life [3]: < 10 min
- Emax [4]: 30 to 40%
- IC50 [4]: 10 to 50 nM

SMILES: CC(C)(COc1ccc2c(c1)C(c1ccc(F)cc1)=C(CN1CCCC1)CO2)C(=O)O [Compound I-66]
- Emax [4]: > 50%
- IC50 [4]: 1 to 10 nM

SMILES: O=C(C1=C(c2ccc(F)cc2)c2cc(OCCN3CCCCC3)ccc2OC1)N1CCCC1 [Compound I-41]
- half-life [1]: > 30 min
- half-life [2]: > 30 min
- half-life [3]: < 10 min
- Emax [4]: 30 to 40%
- IC50 [4]: 1 to 10 nM

SMILES: O=C(O)CCOc1ccc2c(c1)C(c1ccc(C(F)(F)F)cc1)=C(CN1CCCC1)CO2 [Compound I-68]
- Emax [4]: > 50%
- IC50 [4]: < 1 nM

SMILES: CN1CCN(CC2=C(c3ccc(F)cc3)c3cc(OCCC(=O)O)ccc3OC2)CC1 [Compound I-64]
- Emax [4]: 30 to 40%
- IC50 [4]: 1 to 10 nM

SMILES: CN1CCN(CC2=C(c3ccc(F)cc3)c3cc(F)ccc3OC2)CC1 [Compound I-59, 1-((6-fluoro-4-(4-fluorophenyl)-2H-chromen-3-yl)methyl)-4-methylpiperazine]
- half-life [1]: 10 to 30 min
- half-life [2]: < 10 min
- half-life [3]: > 30 min
- Emax [4]: 30 to 40%
- IC50 [4]: < 1 nM

SMILES: CN(C)CCNCC1=C(c2ccc(C(F)(F)F)cc2)c2cc(OCCC(=O)O)ccc2OC1 [Compound I-70]
- Emax [4]: 40 to 50%
- IC50 [4]: 1 to 10 nM

SMILES: CC(C)(O)CCOc1ccc2c(c1)C(c1ccc(F)cc1)=C(C(=O)N1CCCC1)CO2 [Compound I-42, (4-(4-fluorophenyl)-6-(3-hydroxy-3-methylbutoxy)-2H-chromen-3-yl)(pyrrolidin-1-yl)methanone]
- half-life [1]: < 10 min
- half-life [2]: 10 to 30 min
- half-life [3]: < 10 min
- Emax [4]: ≤ 30%
- IC50 [4]: > 50 nM

SMILES: O=C(O)CCCOc1ccc2c(c1)C(c1ccc(F)cc1)=C(CN1CCCC1)CO2 [Compound I-67]
- Emax [4]: > 50%
- IC50 [4]: 10 to 50 nM
